Where a name gives a salt, the structure may show the parent alone.
How the values were obtained:
[1] = system: spontaneously hypertensive (SH rats); assay: Blood pressure and heart rate measurements on awake rats; format: in vivo, rat; conditions: per oral administration of 3 mg/kg
Description: Awake rats which are spontaneously hypertensive (SH rats) and which carry an internal transmitter capable of continual measurement both of blood pressure and also heart rate (telemetric capture of hemodynamic parameters) are administered test substances orally in various doses. Subsequently, blood pressure and heart rate, and their changes, are recorded over 24 hours.

[2] = i.v. pharmacokinetics in Wistar rats; format: in vivo; conditions: after i.v. administration
Description: (§1) On the day before administration of the substance, a catheter for obtaining blood is implanted in the jugular vein of the experimental animals (male Wistar rats, body weight 200-250 g) under Isofluran® anesthesia.
(§2) On the day of the experiment, a defined dose of the test substance is administered as solution into the tail vein using a Hamilton® glass syringe (bolus administration, duration of administration <10 s). Blood samples (8-12 time points) are taken through the catheter sequentially over the course of 24 h after administration of the substance. Plasma is obtained by centrifuging the samples in heparinized tubes. Acetonitrile is added to a defined plasma volume per time point to precipitate proteins. After centrifugation, test substance and, where appropriate, known cleavage products of the test substance in the supernatant are determined quantitatively using a suitable LC/MS-MS method.
The measured plasma concentrations are used to calculate pharmacokinetic parameters of the test substance and of the active ingredient compound (A) liberated therefrom, such as AUC, Cmax, T1/2 (half-life) and CL (clearance).**

[3] = Oral pharmacokinetics in Wistar rats; format: in vivo; conditions: after oral administration
Description: as §1
as §2, with “stomach by gavage.” for “tail vein using a Hamilton® glass syringe (bolus administration, duration of administration <10 s).”
The measured plasma concentrations are used to calculate pharmacokinetic parameters of the test substance and of the active ingredient compound (A) liberated therefrom, such as AUC, Cmax, T1/2 (half-life).

[4] = Stability in buffer at various pH values; format: physicochemical
Description: 0.3 mg of the test substance is weighed into a 2 ml HPLC vial and 0.5 ml of acetonitrile or acetonitrile/DMSO (9:1) is added. The substance is dissolved by putting the sample vessel in an ultrasonic bath for about 10 seconds. Then 0.5 ml of the respective buffer solution is added, and the sample is again treated in the ultrasonic bath.
pH 2: 0.03 mol of citric acid, 0.061 mol of sodium chloride and 0.0082 mol of hydrochoric acid ad 1 liter of water;
pH 4: 1 liter of Millipore water is adjusted to pH 4.0 with 1 N hydrochloric acid;
pH 5: 0.096 mol of citric acid and 0.2 mol of sodium hydroxide ad 1 liter of water;
pH 6: 0.06 mol of citric acid and 0.16 mol of sodium hydroxide ad 1 liter of water;
pH 7.4: 90.0 g of sodium chloride, 13.61 g of potassium dihydrogen phosphate and 83.35 g of 1 N sodium hydroxide solution are made up to 1 liter with water; this solution is then further diluted 1:10 with Millipore water.
pH 8: 0.013 mol of borax and 0.021 mol of hydrochloric acid ad 1 liter of water.
5 μl portions of the test solution are analyzed by HPLC for their content of unchanged test substance, and of active substance (A) formed, every hour over a period of 24 hours at 37° C. The percentage areas of the appropriate peaks are used for quantification.
The ratios of the peak areas (F) at the respective time points in relation to the peak areas at the starting time are shown in Table 2 for representative exemplary embodiments: […]

[5] = Determination of the solubility in 5% strength aqueous dextrose solution; format: physicochemical; conditions: saline or isotonic, thermodynamic from solid, room temperature
Description: The test substance is suspended in 5% strength aqueous dextrose solution. This suspension is shaken at room temperature for 24 h. After ultracentrifugation at 224 000 g for 30 min, the supernatant is diluted with DMSO and analysed by HPLC. A two-point calibration plot of the test compound in DMSO is used for quantification.
Agilent 1100 with DAD (G1315A), quat. Pump (G1311A), autosampler CTC HTS PAL, degasser (G1322A) and column thermostat (G1316A); column: Phenomenex Gemini C18, 5 μm, 50 mm×2 mm; temperature: 40° C.; eluent A: water/phosphoric acid pH 2, eluent B: acetonitrile; flow rate: 0.7 ml/min; gradient: 0-0.5 min 85% A, 15% B; ramp 0.5-3 min 10% A, 90% B; 3-3.5 min 10% A, 90% B; ramp 3.5-4 min 85% A, 15% B; 4-5 min 85% A, 15% B.
Agilent 1100 with DAD (G1315A), quat. pump (G1311A), autosampler CTC HTS PAL, degasser (G1322A) and column thermostat (G1316A); column: VDSoptilab Kromasil 100 C18, 3.5 μm, 60 mm×2.1 mm; temperature: 30° C.; eluent A: water+5 ml of perchloric acid/liter, eluent B: acetonitrile; flow rate: 0.75 ml/min; gradient: 0-0.5 min 98% A, 2% B; ramp 0.5-4.5 min 10% A, 90% B; 4.5-6 min 10% A, 90% B; ramp 6.5-6.7 min 98% A, 2% B; 6.7-7.5 min 98% A, 2% B.

% test substance after 4 h [F(t = 4 h) × 100/F(t = 0 h)] ([4]; pH 4, 37° C.) | % test substance after 24 h [F(t = 24 h) × 100/F(t = 0 h)] ([4]; pH 4, 37° C.) | % test substance after 4 h [F(t = 4 h) × 100/F(t = 0 h)] ([4]; pH 5, 37° C.) | % test substance after 24 h [F(t = 24 h) × 100/F(t = 0 h)] ([4]; pH 5, 37° C.) | % test substance after 4 h [F(t = 4 h) × 100/F(t = 0 h)] ([4]; pH 6, 37° C.) | % test substance after 24 h [F(t = 24 h) × 100/F(t = 0 h)] ([4]; pH 6, 37° C.) | % test substance after 4 h [F(t = 4 h) × 100/F(t = 0 h)] ([4]; pH 7.4, 37° C.) | % test substance after 24 h [F(t = 24 h) × 100/F(t = 0 h)] ([4]; pH 7.4, 37° C.) | solubility thermodynamic at 24 h [5] | solubility at 24 h ([5]; 5% aqueous dextrose solution) | SMILES | Heart rate reduction (maximum lowering of heart rate) [1] | detectability of the test substance in plasma [2] | detectability of the test substance in plasma [3]
100% | 100% | 100% | 97% | 78% | 28% | 29% | 0% | 620 µg/mL |  | C[C@H](N)C(=O)N[C@@H](C)C(=O)OC[C@H](COc1ccc(-c2c(C#N)c(N)nc(SCc3coc(-c4ccc(Cl)cc4)n3)c2C#N)cc1)OC(=O)[C@H](C)NC(=O)[C@H](C)N [Example 33, (2S)-3-{4-[2-Amino-6-({[2-(4-chlorophenyl)-1,3-oxazol-4-yl]methyl}sulfanyl)-3,5-dicyanopyridin-4-yl]phenoxy}propane-1,2-diyl(2S,2′S)-bis(2-{[(2S)-2-aminopropanoyl]amino}propanoate)dihydrochloride] | 10% | no longer detectable in plasma even at the first measurement point | no longer detectable in plasma even at the first measurement point
100% | 100% |  |  |  |  | 100% | 68% | 670 µg/mL |  | CC[C@H](C)[C@H](N)C(=O)N[C@@H](C)C(=O)OC[C@H](COc1ccc(-c2c(C#N)c(N)nc(SCc3coc(-c4ccc(Cl)cc4)n3)c2C#N)cc1)OC(=O)[C@H](C)NC(=O)[C@@H](N)[C@@H](C)CC [Example 2, (2S)-3-{4-[2-Amino-6-({[2-(4-chlorophenyl)-1,3-oxazol-4-yl]methyl}sulfanyl)-3,5-dicyanopyridin-4-yl]phenoxy}propane-1,2-diyl (2S,2′S)-bis(2-{[(2S,3S)-2-amino-3-methylpentanoyl]amino}propanoate)dihydrochloride] |  |  | no longer detectable in plasma even at the first measurement point
100% | 100% | 100% | 100% | 99% | 98% | 96% | 81% |  |  | C[C@H](NC(=O)CCN)C(=O)OC[C@H](COc1ccc(-c2c(C#N)c(N)nc(SCc3coc(-c4ccc(Cl)cc4)n3)c2C#N)cc1)OC(=O)[C@H](C)NC(=O)CCN [Example 32, (2S)-3-{4-[2-Amino-6-({[2-(4-chlorophenyl)-1,3-oxazol-4-yl]methyl}sulfanyl)-3,5-dicyanopyridin-4-yl]phenoxy}propane-1,2-diyl (2S,2′S)-bis{2-[(3-aminopropanoyl)amino]propanoate}dihydrochloride] | 10% | no longer detectable in plasma even at the first measurement point | 
100% | 100% | 98% | 83% |  |  | 0% | 0% |  |  | C[C@H](NC(=O)CN)C(=O)OC[C@H](COc1ccc(-c2c(C#N)c(N)nc(SCc3coc(-c4ccc(Cl)cc4)n3)c2C#N)cc1)OC(=O)[C@H](C)NC(=O)CN [Example 7, (2S)-3-{4-[2-Amino-6-({[2-(4-chlorophenyl)-1,3-oxazol-4-yl]methyl}sulfanyl)-3,5-dicyanopyridin-4-yl]phenoxy}propane-1,2-diyl (2S,2′S)-bis{2-[(aminoacetyl)amino]propanoate}dihydrochloride] |  |  | no longer detectable in plasma even at the first measurement point
 |  |  |  |  |  |  |  |  | < 1.2 µg/mL | N#Cc1c(N)nc(SCc2coc(-c3ccc(Cl)cc3)n2)c(C#N)c1-c1ccc(OC[C@H](O)CO)cc1 [Example 8A, 2-Amino-6-({[2-(4-chlorophenyl)-1,3-oxazol-4-yl]methyl}sulfanyl)-4-(4-{[(2R)-2,3-dihydroxypropyl]oxy}phenyl)pyridine-3,5-dicarbonitrile] | 10% |  | 
100% | 100% |  |  |  |  | 82% | 34% |  |  | C[C@H](NC(=O)[C@@H]1CCCN1)C(=O)OC[C@H](COc1ccc(-c2c(C#N)c(N)nc(SCc3coc(-c4ccc(Cl)cc4)n3)c2C#N)cc1)OC(=O)[C@H](C)NC(=O)[C@@H]1CCCN1 [Example 8, (2S)-3-{4-[2-Amino-6-({[2-(4-chlorophenyl)-1,3-oxazol-4-yl]methyl}sulfanyl)-3,5-dicyanopyridin-4-yl]phenoxy}propane-1,2-diyl (2S,2′S)-bis(2-{[(2S)-pyrrolidin-2-ylcarbonyl]amino}propanoate)bis(trifluoroacetic acid) salt] |  |  | no longer detectable in plasma even at the first measurement point

Source: US8741834B2, “Dipeptoid prodrugs and the use thereof” (Bayer Intellectual Property GmbH, priority 2008, dated 2014)
